Source: article PMC6216040, “Repurposing of an old drug: In vitro and in vivo efficacies of buparvaquone against Echinococcus multilocularis” (International Journal for Parasitology: Drugs and Drug …, 2018)

Tested on: E. multilocularis metacestodes
Assay: PGI-assay: drug-induced damage on in vitro cultured metacestodes (Pathogen Box screening cascade and EC50)
Assay type: cell-based, Echinococcus multilocularis
Conditions: for PGI release, % of the Tx-100 control, 5d / PGI release, % of the Tx-100 control, 12d: 10 µM, singlets

SMILES: Cc1ccc2c(c1C)NC(=O)C21NN=C(c2ccccc2)S1 (stereo not drawn) [MMV019189]
- PGI release, % of the Tx-100 control, 5d (5 days of incubation): 4.07%
- PGI release, % of the Tx-100 control, 12d (12 days of incubation): -1.23%

SMILES: COc1ccc(C2CC(c3cccs3)=NN2C(=O)c2ccco2)cc1OC (stereo not drawn) [MMV019234]
- PGI release, % of the Tx-100 control, 5d (5 days of incubation): 0.82%
- PGI release, % of the Tx-100 control, 12d (12 days of incubation): 6.10%

SMILES: CCC(NC(=O)c1ccccc1NC(=O)c1ccc(C)cc1)C(=O)OC (stereo not drawn) [MMV019551]
- PGI release, % of the Tx-100 control, 5d (5 days of incubation): -0.56%
- PGI release, % of the Tx-100 control, 12d (12 days of incubation): 0.21%

SMILES: CCN(CC)S(=O)(=O)c1ccc(Cl)c(C(=O)Nc2ccc3nc(C)sc3c2)c1 [MMV019721]
- PGI release, % of the Tx-100 control, 5d (5 days of incubation): -0.43%
- PGI release, % of the Tx-100 control, 12d (12 days of incubation): -1.86%

SMILES: Cc1ccc(S(=O)(=O)N2CCN(C(=O)c3cc(-c4ccccc4)n[nH]3)CC2)cc1 [MMV019742]
- PGI release, % of the Tx-100 control, 5d (5 days of incubation): 0.16%
- PGI release, % of the Tx-100 control, 12d (12 days of incubation): 0.57%

SMILES: CCOc1ccccc1C(=O)Nc1cccc(-c2nc3ncccn3c2C)c1 [MMV019790]
- PGI release, % of the Tx-100 control, 5d (5 days of incubation): -1.05%
- PGI release, % of the Tx-100 control, 12d (12 days of incubation): 53.36%
- PGI release, % of Tx-100 control, average, 5d (confirmatory screening at 10 µM in triplicates, 5 days of incubation, values as % of Tx-100 control): -1.68%
- PGI release, % of Tx-100 control, average, 12d (confirmatory screening at 10 µM in triplicates, 12 days of incubation, values as % of Tx-100 control): -2.24%

SMILES: Cc1ccc2cc(C3NC(=O)c4ccccc4N3)c(Cl)nc2c1 (stereo not drawn) [MMV019807]
- PGI release, % of the Tx-100 control, 5d (5 days of incubation): 1.08%
- PGI release, % of the Tx-100 control, 12d (12 days of incubation): 2.05%

SMILES: O=C(Nc1ccnc(-c2cccnc2)n1)c1cc(C(F)(F)F)cc(C(F)(F)F)c1 [MMV019838]
- PGI release, % of the Tx-100 control, 5d (5 days of incubation): 1.37%
- PGI release, % of the Tx-100 control, 12d (12 days of incubation): -0.96%

SMILES: Cc1nn(C)cc1C(C)Nc1nncc(-c2ccc(C(F)(F)F)cc2)n1 (stereo not drawn) [MMV019993]
- PGI release, % of the Tx-100 control, 5d (5 days of incubation): -0.77%
- PGI release, % of the Tx-100 control, 12d (12 days of incubation): -1.30%

SMILES: COc1cccc(CC(=O)N2CCC(n3c(C)nc4ccc(F)cc43)CC2)c1 [MMV020081]
- PGI release, % of the Tx-100 control, 5d (5 days of incubation): -1.15%
- PGI release, % of the Tx-100 control, 12d (12 days of incubation): -0.33%

SMILES: CC1CC1C(=O)NC1CCN(CC2(c3ccccc3)CCCCC2)CC1 (stereo not drawn) [MMV020120]
- PGI release, % of the Tx-100 control, 5d (5 days of incubation): -0.34%
- PGI release, % of the Tx-100 control, 12d (12 days of incubation): -0.45%

SMILES: CNC(=O)c1cc(S(=O)(=O)N2CCN(c3ccccn3)CC2)cs1 [MMV020136]
- PGI release, % of the Tx-100 control, 5d (5 days of incubation): -0.32%
- PGI release, % of the Tx-100 control, 12d (12 days of incubation): 0.25%

SMILES: Cc1cc(C(=O)Nc2ccc(-c3ccccc3)cc2)no1 [MMV020152]
- PGI release, % of the Tx-100 control, 5d (5 days of incubation): 0.07%
- PGI release, % of the Tx-100 control, 12d (12 days of incubation): -0.81%

SMILES: CC(C)NCC(=O)Nc1cccc(C(=O)Nc2cccc(C(F)(F)F)c2)c1 [MMV020165]
- PGI release, % of the Tx-100 control, 5d (5 days of incubation): 0.28%
- PGI release, % of the Tx-100 control, 12d (12 days of incubation): -0.10%

SMILES: Cc1ccc(NC(=O)c2cc(S(=O)(=O)NC(C)(C)C)ccc2C)nc1 [MMV020289]
- PGI release, % of the Tx-100 control, 5d (5 days of incubation): -0.85%
- PGI release, % of the Tx-100 control, 12d (12 days of incubation): -0.97%

SMILES: CC(C(=O)N1CCCC1)N1CCN(S(=O)(=O)c2ccc(C(C)(C)C)cc2)CC1 (stereo not drawn) [MMV020291]
- PGI release, % of the Tx-100 control, 5d (5 days of incubation): -0.20%
- PGI release, % of the Tx-100 control, 12d (12 days of incubation): -0.67%

SMILES: Cc1nnc(NC(=O)c2cn(-c3ccccc3)nc2-c2ccccc2C)o1 [MMV020320]
- PGI release, % of the Tx-100 control, 5d (5 days of incubation): -1.15%
- PGI release, % of the Tx-100 control, 12d (12 days of incubation): 2.11%

SMILES: COc1ccccc1C(C)NCC(=O)Nc1cc(C(F)(F)F)ccc1Cl (stereo not drawn) [MMV020321]
- PGI release, % of the Tx-100 control, 5d (5 days of incubation): 0.0279%
- PGI release, % of the Tx-100 control, 12d (12 days of incubation): 2.67%

SMILES: CC1CCCN(C(=O)C(C)Nc2cc(Cl)ccc2N2CCOCC2)C1 (stereo not drawn) [MMV020388]
- PGI release, % of the Tx-100 control, 5d (5 days of incubation): -0.77%
- PGI release, % of the Tx-100 control, 12d (12 days of incubation): -1.83%

SMILES: CC(C)C(C(=O)Nc1ccc(S(=O)(=O)N(C)C)cc1)c1ccc(Cl)cc1 (stereo not drawn) [MMV020391]
- PGI release, % of the Tx-100 control, 5d (5 days of incubation): -0.90%
- PGI release, % of the Tx-100 control, 12d (12 days of incubation): -4.50%

SMILES: Cc1ccc(Oc2ccc(NC(=O)CNc3ccccc3N3CCCC3=O)cc2)cc1 [MMV020512]
- PGI release, % of the Tx-100 control, 5d (5 days of incubation): 0.61%
- PGI release, % of the Tx-100 control, 12d (12 days of incubation): 1.80%

SMILES: COc1ccccc1CNC(=O)c1cc(C2CC2)nc2c1cnn2C(C)C [MMV020517]
- PGI release, % of the Tx-100 control, 5d (5 days of incubation): -0.60%
- PGI release, % of the Tx-100 control, 12d (12 days of incubation): -1.00%

SMILES: Cc1cc2ccccc2n1CC(=O)N1CC(C(=O)N2CCCCC2)Oc2ccccc21 (stereo not drawn) [MMV020520]
- PGI release, % of the Tx-100 control, 5d (5 days of incubation): -0.40%
- PGI release, % of the Tx-100 control, 12d (12 days of incubation): -0.48%
